According to patent US20230051589A1, “COMPOUNDS AND COMPOSITIONS FOR TREATING CONDITIONS ASSOCIATED WITH NLRP ACTIVITY” (Novartis AG, priority 2018, published 2023):
Where two headings read alike, the source gives them in different places.

System: IL-1β production in PMA-differentiated THP-1 cells
Assay: IL-1β production in PMA-differentiated THP-1 cells stimulated with gramicidin (hTHP-1 assay, 2% fetal bovine serum; Procedures 1-3)
Assay type: cell-based, human
Summary of the method: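 PMA-primed THP-1 cells (20 ng/ml PMA, 16-18 h) in RPMI with 2% FBS were pre-incubated with compounds for 1 h, from 100 μM downward in 3-fold steps (0.37% DMSO final), then stimulated with 5 μM gramicidin for 2 h. IL-1β in the supernatant was quantified by HTRF.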

[1] = Table B3, hTHP-1 assay containing 2% fetal bovine serum, gramicidin stimulation, IL-1β readout, read-out: hTHP-1 IC50
[2] = Homo sapiens, THP-1, hTHP-1 assay containing 2% fetal bovine serum, Table B2, class symbols, read-out: IC50
[3] = Homo sapiens, THP-1, hTHP-1 assay containing 2% fetal bovine serum, Table B2, given as bound, read-out: IC50
[4] = Table B1, hTHP-1 assay containing 2% fetal bovine serum, gramicidin stimulation, IL-1β readout, read-out: hTHP-1 IC50 (average)
[5] = hTHP-1 assay containing 2% fetal bovine serum, Table B2, class symbols, read-out: IC50
[6] = Homo sapiens, THP-1, Table B1, hTHP-1 assay containing 2% fetal bovine serum, gramicidin stimulation, IL-1β readout, read-out: hTHP-1 IC50 (average)

NS(=O)(=NC(=O)Nc1c2c(cc3c1CC3)CCC2)c1cc2c(s1)CCN[C@@H]2C(F)F (single isomer, unassigned) [Example 874, (R or S,4S)-4-(difluoromethyl)-N′-((2,4,5,6-tetrahydro-1H-cyclobuta[f]inden-3-yl)carbamoyl)-4,5,6,7-tetrahydrothieno[3,2-c]pyridine-2-sulfonimidamide]
IC50 [1]: 40 to 200 nM

CNCc1csc(S(N)(=O)=NC(=O)Nc2c3c(cc4c2CCC4)CCC3)c1F (stereo not shown) [Example 779, 3-Fluoro-N′-((1,2,3,5,6,7-hexahydro-s-indacen-4-yl)carbamoyl)-4-((methylamino)methyl)thiophene-2-sulfonimidamide]
IC50 (Homo sapiens, THP-1, Table B3, hTHP-1 assay containing 2% fetal bovine serum, gramicidin stimulation, IL-1β readout, read-out: hTHP-1 IC50): 40 to 200 nM

CN(Cc1cccc(S(N)(=O)=NC(=O)Nc2c3c(cc4c2CCC4)CCC3)c1)CC1CC1 (stereo not shown) [Example 507, 3-(((Cyclopropylmethyl) (methyl)amino)methyl)-N′-((1,2,3,5,6,7-hexahydro-s-indacen-4-yl)carbamoyl)benzenesulfonimidamide]
IC50 [2]: 5000 to 30000 nM

NS(=O)(=NC(=O)Nc1c2c(cc3c1CC3)CCC2)c1cc2c(s1)CCN[C@H]2C(F)F (single isomer, unassigned) [Example 876, (R or S,4R)-4-(difluoromethyl)-N′-((2,4,5,6-tetrahydro-1H-cyclobuta[f]inden-3-yl)carbamoyl)-4,5,6,7-tetrahydrothieno[3,2-c]pyridine-2-sulfonimidamide]
IC50 [1]: 40 to 200 nM

CN(Cc1ccc(S(N)(=O)=NC(=O)Nc2c3c(cc4c2CCC4)CCC3)cc1)CC(F)(F)F (single isomer, unassigned) [Example 608, (R) or (R)-N′-((1,2,3,5,6,7-hexahydro-s-indacen-4-yl)carbamoyl)-4-((methyl(2,2,2-trifluoroethyl)amino)methyl) benzenesulfonimidamide]
IC50 [3]: > 30000 nM

CC(C)(O)c1ccc([S@@](N)(=O)=NC(=O)Nc2c3c(cc4c2C(=O)CC4)CCC3)cn1 [Compound 804a]
IC50 [3]: > 30000 nM

CC(C)(O)c1cnc(S(N)(=O)=NC(=O)Nc2c3c(cc4c2CCC4=O)CCC3)s1 (single isomer, unassigned) [Example 589, (R) or (S)-5-(2-hydroxypropan-2-yl)-N′-((1-oxo-1,2,3,5,6,7-hexahydro-s-indacen-4-yl)carbaamoyl) thiazole-2-sulfonimidamide]
IC50 [2]: 1000 to 5000 nM

CC(c1ccc(S(N)(=O)=NC(=O)Nc2c3c(cc4c2CCC4)CCC3)cc1)N(C)C (stereo not shown) [Example 266, 4-(1-(Dimethylamino)ethyl)-N′-(1,2,3,5,6,7-hexahydro-s-indacen-4-ylcarbamoyl)-benzenesulfonimidamide]
IC50 [4]: 40 to 200 nM

NS(=O)(=NC(=O)Nc1c2c(cc3c1CCC3)CCC2)c1cc2c(s1)CCNC2 (single isomer, unassigned) [Example 788, (S) or (R)-N′-((1,2,3,5,6,7-hexahydro-5-indacen-4-yl)carbamoyl)-4,5,6,7-tetrahydrothieno[3,2-c]pyridine-2-sulfonimidamide]
IC50 [1]: 200 to 1000 nM

C=CCc1c2c(c(NC(=O)N=S(N)(=O)c3cc(C(C)(C)O)n(-c4ccccc4)n3)c3c1CCC3)CCC2 (single isomer, unassigned) [Example 567, (S) or (R)-N′-((8-allyl-1,2,3,5,6,7-hexahydro-s-indacen-4-yl)carbamoyl)-5-(2-hydroxypropan-2-yl)-1-phenyl-1H-pyrazole-3-sulfonimidaimde]
IC50 [5]: 5000 to 30000 nM

CC(c1ccc(S(N)(=O)=NC(=O)Nc2c3c(cc4c2CCC4)CCC3)cc1)N(C)C (single isomer, unassigned) [Example 377, (R, R) or (R, S) or (S, S) or (S, R)-4-(1-(dimethyl-amino)ethyl)-N′-((1,2,3,5,6,7-hexahydro-s-indacen-4-yl)carbamoyl)-benzenesulfonimidamide]
IC50 [4]: 40 to 200 nM

CC(C)(O)c1ccc(S(N)(=O)=NC(=O)Nc2c3c(c(C#N)c4c2CCC4)CCC3)cn1 (single isomer, unassigned) [Example 545, (R) or (S)-N′-((8-cyano-1,2,3,5,6,7-hexahydro-s-indacen-4-yl)carbamoyl)-6-(2-hydroxypropan-2-yl)pyridine-3-sulfonimidamide]
IC50 [5]: 40 to 200 nM

CC(C)c1cnc(S(N)(=O)=NC(=O)Nc2c3c(cc4c2CCC4)CCC3)c(F)c1 (stereo not shown) [Compound 903]
IC50 [2]: 1000 to 5000 nM

CC(C)(O)c1ccnc([S@](N)(=O)=NC(=O)Nc2c3c(c(C#N)c4c2CCC4)CCC3)c1 [Compound 818a]
IC50 [2]: 1000 to 5000 nM

NS(=O)(=NC(=O)Nc1c2c(cc3c1CCC3)CCC2)c1sc(CNC2CCC2)cc1F (single isomer, unassigned) [Example 796, (S) or (R)-5-((cyclobutylamino)methyl)-3-fluoro-N′-((1,2,3,5,6,7-hexahydro-s-indacen-4-yl)carbamoyl)thiophene-2-sulfonimidamide]
IC50 [1]: 5000 to 30000 nM

CC(O)(CO)c1nc(CO)c(S(N)(=O)=NC(=O)Nc2c3c(cc4c2CCC4)CCC3)s1 (stereo in doubt) [Example 755, 2-((S)-1,2-dihydroxypropan-2-yl)-N′-((1,2,3,5,6,7-hexahydro-s-indacen-4-yl)carbamoyl)-4-(hydroxymethyl)thiazole-5-sulfonimidamide]
IC50 [1]: 200 to 1000 nM

N[S@@](=O)(=NC(=O)Nc1c2c(cc3c1CCC3)CCC2)c1ccc(CNC2CCC2)cc1 [Example 705, (R)-4-((cyclobutylamino)methyl)-N′-((1,2,3,5,6,7-hexahydro-s-indacen-4-yl)carbamoyl)-benzenesulfonimidamide]
IC50 [2]: 1000 to 5000 nM

CC(O)(CO)c1cc(F)c(S(N)(=O)=NC(=O)Nc2c3c(c(C#N)c4c2CCC4)CCC3)s1 (stereo not shown) [Example 443, N′-((8-cyano-1,2,3,5,6,7-hexahydro-s-indacen-4-yl)carbamoyl)-5-(1,2-dihydroxypropan-2-yl)-3-fluorothiophene-2-sulfonimidamide]
IC50 [5]: 40 to 200 nM

CC(C)(CO)c1ncc(S(N)(=O)=NC(=O)Nc2c3c(c(C#N)c4c2CCC4)CCC3)s1 (stereo not shown) [Compound 913]
IC50 [2]: 40 to 200 nM

CC(C)(O)c1cnc(S(N)(=O)=NC(=O)Nc2c3c(cc4c2OCC4)CCC3)s1 (single isomer, unassigned) [Example 350, (R) or (S)-5-(2-hydroxy-propan-2-yl)-N′-((3,5,6,7-tetrahydro-2H-indeno-[5,6-b]furan-8-yl)carbam-oyl)thiazole-2-sulfonimid-amide]
IC50 [4]: 40 to 200 nM

CC(C)(O)c1ncc(S(N)(=O)=NC(=O)Nc2cc3c(c4c2CCC4)CCC3)s1 (single isomer, unassigned) [Example 419, (R) or (S)-N′-((1,2,3,6,7,8-hexahydro-as-indacen-4-yl)carbamoyl)-2-(2-hydroxypropan-2-yl)thia-zole-5-sulfonimidamide]
IC50 [4]: 40 to 200 nM

CCn1ccc(S(N)(=O)=NC(=O)Nc2c3c(cc4c2CCC4)CCC3)n1 (single isomer, unassigned) [Example 814, (S) or (R)-1-ethyl-N′-((1,2,3,5,6,7-hexahydro-s-indacen-4-yl)carbamoyl)-1H-pyrazole-3-sulfonimidamide]
IC50 [1]: 1000 to 5000 nM

CC(C)NCc1ccc([S@](N)(=O)=NC(=O)Nc2c3c(cc4c2CCC4)CCC3)cc1 [Example 706, (R)-N′-((1,2,3,5,6,7-hexahydro-s-indacen-4-yl)carbamoyl)-4-((isopropylamino)methyl)-benzenesulfonimidamide]
IC50 [2]: 1000 to 5000 nM

NS(=O)(=NC(=O)Nc1c2c(cc3c1CC3)CCC2)c1ccc(CN2CCC2)cc1F (single isomer, unassigned) [Example 525, (S) or (R)-4-(azetidin-1-ylmethyl)-2-fluoro-N′-((2,4,5,6-tetrahydro-1H-cyclobuta[f]inden-3 - yl)carbamoyl) benzenesulfonimidamide]
IC50 [5]: 5000 to 30000 nM

CC(C)(O)c1cccc(S(N)(=O)=NC(=O)Nc2c3c(cc4c2CCC4)CCC3)n1 (stereo not shown) [Compound 895]
IC50 [2]: 1000 to 5000 nM

N=S(=O)(NC(=O)Nc1c2c(cc3c1CCC3)CCC2)c1nn(C(F)F)cc1F (single isomer, unassigned) [Example 711]
IC50 [5]: 1000 to 5000 nM

NS(=O)(=NC(=O)Nc1c2c(cc3c1CCC3)CCC2)c1ccc(C2CCNC2)cc1F (single isomer, unassigned) [Example 625, (S,R) or (R,R)-2-fluoro-N′-((1,2,3,5,6,7-hexahydro-s-indacen-4-yl)carbamoyl)-4-pyrrolidin-3-yl) benzenesulfonimidamide]
IC50 [5]: 200 to 1000 nM

CC(C)(O)c1cnc(S(N)(=O)=NC(=O)Nc2c3c(cc4c2CCC4O)CCC3)s1 (single isomer, unassigned) [Example 655, (S,R) or (S,S)-N′-((1-hydroxy-1,2,3,5,6,7-hexahydro-5-indacen-4-yl)carbamoyl)-5-(2-hydroxypropan-2-yl)thiazole-2-sulfonimidamide]
IC50 [3]: > 30000 nM
